From patent US20240299292A1, “STABLE SEMI-SOLID CHEWABLE GEL COMPOSITIONS AND METHODS OF MAKING AND USING THEREOF” (Seattle Gummy Company, priority 2021, published 2024)

What was measured:
[1] = ITC association constant of cetirizine-β-cyclodextrin complex; type: binding; details: beta vs alpha and gamma cyclodextrin
Source text: Either the phenyl group or the 4-chlorophenyl group fit inside the ring structure. The inside cavity of cylcodextrins is largely hydrophobic which is favorable for aromatic systems that are also hydrophobic. The formation of the chelate structure is […] favorable due to electrostatic interactions of the pi system of the aromatic moiety with in the hydrophobic cavity and electronic interaction with the hydrogen atoms and […]. It is these electronic interactions between these systems of the cyclodextrin and the pi system that gives the favorable heat of formation.

[2] = ITC measurements; cited from earlier work
[3] = ITC measurements; cited from earlier work; remark: listed apart in the source
[4] = ITC measurements; cited from earlier work; remark: listed apart in the source

O=C(O)COCCN1CCN(C(c2ccccc2)c2ccc(Cl)cc2)CC1 (stereo not shown) [cetirizine]
formation constant of beta cyclodextrin complex relative to alpha and gamma cyclodextrin [1]: nearly four times | association constant K(a), cetirizine-α-cyclodextrin complex [2]: 1434 ± 60 M⁻¹ | association constant, cetirizine-γ-cyclodextrin complex [3]: 1200 ± 50 M⁻¹ | association constant K(a), cetirizine-β-cyclodextrin complex [4]: 5641 ± 358 M⁻¹
